Data as given in US12012390B2, “Flavone compounds for the treatment and prophylaxis of hepatitis B virus disease” (priority 2018, dated 2024).

Experiments:
[1] = system: HBeAg level (surrogate marker for cccDNA) in HepDES19 cells; test: Engineered HepDES19 primary screen assay (HBeAg as surrogate marker for cccDNA); format: cell-based, HBV; settings: Hepatitis B virus, HepDES19, 120 h, read-out: IC50 (HBeAg) in HepDES19 primary screen assay, HepDES19 cells, 5 days incubation with compound, HBeAg by ELISA
Summary of the method: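 HepDES19 cells were induced by Tet withdrawal for 8 days, then exposed to half-log compound dilutions (1% DMSO) for 5 days at 37° C. HBeAg, a cccDNA surrogate, was measured by ELISA; viability by CCK-8. IC50 from 4-parameter logistic fit.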

cccDNA in HepDES19 cells = test: cccDNA Southern Blot assay; format: cell-based, HBV; settings: 5 days' compound treatment, FIG. 1
Procedure: HepDES19 cells were seeded at 4×10^6 cells per T150 in the culture medium (Dulbecco's Modified Eagle Medium: Nutrient Mixture F-12 [DMEM-F12, Gibco Cat. 11320-82], 10% Fetal Bovine Serum [FBS, Clontech Cat. 631101], 0.1 mM Non-Essential Amino Acids Solution [NEAA, Gibco Cat. 11140-050], 50 μg/mL Penicillin-Streptomycin [PS, Invitrogen Cat. 15140-163], 500 μg/mL Geneticin [G418, Invitrogen Cat. 10131-027]) in the absence of Tet for 8 days. These cells were seeded at the density of 1×10^6 cells per well in 6-well plate. At 24 hrs after seeding, serial dilutions of compounds made with DMSO (Sigma, Cat. D2650) were further diluted with the same culture medium as described above before they were added to the cells to reach desired final compound concentrations and 1% DMSO concentration. After 5 days' compound treatment, the cells growing in one well from 6-well plate were re-suspended with 500 μL re-suspension buffer (50 mM tris[hydroxymethyl]amino methane pH 7.5), 10 mM ethylenediaminetetraacetic acid (EDTA), 50 μg/mL RNase A [Qiagen, Cat. 158922]. 500 μL of 1.2% sodium dodecyl sulfate (SDS) was then added into the re-suspended cells to lyse the cells. After 15 minutes' incubation, 700 μL precipitation buffer (3M cesium chloride, 1M potassium acetate, 0.67M acetic acid) was added and the lysate was incubated at 4° C. for 2 h. […]

With `O=C(O)C1CC(OCCOc2ccc(-c3cc(=O)c4cccc(Cl)c4o3)cc2)C1` (centres unmarked) [Example 1, 3-[2-[4-(8-chloro-4-oxo-chromen-2-yl)phenoxy]ethoxy]cyclobutanecarboxylic acid] the IC50 [1] was 140 nM and the “cccDNA level in cccDNA Southern Blot assay” value (cccDNA in HepDES19 cells) was “dose-dependently reduced cccDNA level”.
